Measurements: PubChem BioAssay (NCI)
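Method: 48-hour compound exposure of cells in 96-well plates, five concentrations, linear interpolation of endpoints. Abbreviation: GI50, concentration required for 50% inhibition of growth. TGI marks complete inhibition of growth.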

Columns and labels:
Assay in all cases: NCI-60 cell line screen, 48 h
[1] = system: RXF 393 renal
[2] = system: RPMI-8226 leukemia
[3] = system: OVCAR-8 ovarian
[4] = system: UO-31 renal
[5] = system: A549 NSCLC
[6] = system: HCC-2998 colon
[7] = system: UACC-62 melanoma
[8] = system: 786-0 renal
[9] = system: HCT-15 colon
[10] = system: COLO 205 colon

| Structure (SMILES) | GI50 [1] [µM] | TGI [1] [µM] | GI50 [2] [µM] | TGI [2] [µM] | GI50 [3] [µM] | TGI [3] [µM] | GI50 [4] [µM] | TGI [4] [µM] | GI50 [5] [µM] | TGI [5] [µM] | GI50 [6] [µM] | TGI [6] [µM] | GI50 [7] [µM] | TGI [7] [µM] | GI50 [8] [µM] | TGI [8] [µM] | GI50 [9] [µM] | TGI [9] [µM] | GI50 [10] [µM] | TGI [10] [µM] |
| --- | --- | --- | --- | --- | --- | --- | --- | --- | --- | --- | --- | --- | --- | --- | --- | --- | --- | --- | --- | --- |
| O=S(=O)([O-])c1ccc2c(c1)-c1nc-2nc2[n-]c(nc3nc(nc4[n-]c(n1)c1ccc(S(=O)(=O)[O-])cc41)-c1cc(S(=O)(=O)[O-])ccc1-3)c1ccc(S(=O)(=O)[O-])cc21.[Cu+2].[Na+] | 49.4 | > 100 | > 56.4 | > 74.3 | > 100 | > 100 | > 39.6 | > 93.9 | 24.1 | > 100 | > 100 | > 100 | 21.7 | > 100 | > 44 | > 69.6 | 0.977 | 36.4 | 6.96 | > 62 |
| CC(C)(C)C(=O)OCOP(=O)(OCOC(=O)C(C)(C)C)C1CCCN(O)C1=O (stereo not given) | 0.36 | 1.74 | 0.308 | 1.12 | 0.305 | 8.91 | 0.306 | 6.41 | 0.637 | > 100 | 0.446 | 5.59 | 0.318 | 2.1 | 0.35 | 18.1 | 0.675 | 14.8 | 0.6 | 3.64 |
| O=C(Nc1nc2ncn(CCI)c2c(=O)[nH]1)c1ccccc1 | – | 59.3 | – | > 100 | – | > 62.2 | – | > 100 | – | > 100 | – | > 100 | – | > 100 | – | > 100 | – | > 100 | – | > 100 |
| CCN1CCN(c2ccc(Nc3cc(N(C)C(=O)Nc4c(Cl)c(OC)cc(OC)c4Cl)ncn3)cc2)CC1 | 1.13 | 2.72 | 1.76 | 4.71 | 3.07 | 22.9 | 1.35 | 10 | 3.13 | 12.1 | 8.04 | 32.5 | 1.66 | 3.14 | 1.88 | 4.27 | 1.87 | 8.94 | 1.93 | 3.47 |
| COc1cc(Nc2cn[nH]c2-c2ccc(Cl)cc2)cc(OC)c1OC | 10.4 | > 64.1 | 2.48 | 12.3 | 14.3 | > 100 | 4.09 | 28.8 | 5.96 | > 100 | 5.46 | 23.4 | 3.61 | 18.9 | 6.8 | 36.2 | 4.35 | 50 | 4.39 | 21.9 |
| CC(SC(C)C(=O)N/N=C/c1cccc(Cl)c1)C(=O)N/N=C\c1cccc(Cl)c1 (stereo not given) | 22.6 | 90.1 | 17.9 | > 100 | 4.78 | 23.2 | 14.8 | 94.4 | 3.3 | 12.3 | 8 | 75.8 | 20.3 | 46.2 | 14.5 | 35.5 | 32.3 | > 100 | 11.6 | 38.9 |
| Cc1cc(Br)cc(C)c1NC(=O)C(=O)C(C(=O)c1ccc2ccccc2c1)C1OC(=O)c2ccccc21 (stereo not given) | – | 17.8 | – | > 80.5 | – | 22.8 | – | 30.3 | – | > 100 | – | 24.7 | – | 29.6 | – | 19.3 | – | 42.3 | – | 50.9 |
| COc1ccc(C(=O)c2cc(OC)c(C)c(OC)c2)cc1OC(=O)CCl | 0.33 | 32.5 | 0.337 | 14.1 | 0.507 | > 100 | 0.628 | 74 | 1.11 | > 100 | 0.633 | 19.3 | 1.61 | 22.4 | 3.65 | > 79.5 | 0.0697 | 27.2 | 7.78 | 69.4 |
| Oc1ccc(Cl)cc1Cc1cc(Cl)cc(Cl)c1O | 2.54 | 8.54 | 3.09 | 11.9 | 12.8 | 76.4 | 3.48 | 15.2 | 5.48 | 47.6 | 6.52 | 18.9 | 4.55 | 18.8 | 8.98 | 30.1 | 4.18 | 23.5 | 19.5 | 36.6 |
| Cc1ccc(Cl)cc1Nc1nc(C(F)(F)F)ccc1C(=O)N1CCN(c2ccc(F)cc2)CC1 | 11.2 | 29.9 | 15.5 | 52.6 | 16.6 | 50.2 | 4.49 | 22.5 | 15.3 | 37.1 | 12.7 | 26 | 11.5 | 24.1 | 14.7 | 29.4 | 13.2 | 29.3 | 15.8 | 30.2 |
